The results in this text go back to ChEMBL document CHEMBL5724914, “Linking interpersonal differences in gut microbiota composition and drug biotransformation activity” (2024).

Data set [1] is described as follows: The drug is tested on Z-007 corresponding to rat gut metagenome with ENA study accession number: PRJEB37062 and ENA sample accession number: ERS12561807 for biotransformation under anaerobic condition. The drug concentrations were measured over 9 timepoints collected between 0 and 24 hours of incubation by liquid-chromatography-coupled mass spectrometry (LC–MS). To be noted: 2 µM.

Data set [2] is described as follows: The drug is tested on Z-010 corresponding to metagenome with ENA study accession number: PRJEB37062 and ENA sample accession number: ERS12561810 for biotransformation under anaerobic condition. The drug concentrations were measured over 9 timepoints collected between 0 and 24 hours of incubation by liquid-chromatography-coupled mass spectrometry (LC–MS). To be noted: 2 µM.

The conditions of data set [3]: human gut metagenome, 24 h, 2 µM.
For data set [4] the following is noted: human gut metagenome, 24 h, 2 µM. The source holds these as a separate data set.
The conditions of data set [5]: human gut metagenome, 24 h, 2 µM. This is another data set of the same source.
The nature of data set [6]: The drug is tested on Z-022 corresponding to mouse gut metagenome with ENA study accession number: PRJEB37062 and ENA sample accession number: ERS12561821 for biotransformation under anaerobic condition. The drug concentrations were measured over 9 timepoints collected between 0 and 24 hours of incubation by liquid-chromatography-coupled mass spectrometry (LC–MS). To be noted: 2 µM.

The conditions of data set [7]: human gut metagenome, 24 h, 2 µM. This is another data set of the same source.
Data set [8] is described as follows: The drug is tested on WLS-350 corresponding to human gut metagenome with ENA study accession number: PRJEB37062 and ENA sample accession number: ERS12561789 for biotransformation under anaerobic condition. The drug concentrations were measured over 9 timepoints collected between 0 and 24 hours of incubation by liquid-chromatography-coupled mass spectrometry (LC–MS). To be noted: 2 µM.

Data set [9] is described as follows: The drug is tested on WLS-007 corresponding to human gut metagenome with ENA study accession number: PRJEB37062 and ENA sample accession number: ERS12561742 for biotransformation under anaerobic condition. The drug concentrations were measured over 9 timepoints collected between 0 and 24 hours of incubation by liquid-chromatography-coupled mass spectrometry (LC–MS). To be noted: 2 µM.

The conditions of data set [10]: human gut metagenome, 24 h, 2 µM. The source holds these as a separate data set.
Data set [11] can be described thus: The drug is tested on Z-027 corresponding to metagenome with ENA study accession number: PRJEB37062 and ENA sample accession number: ERS12561826 for biotransformation under anaerobic condition. The drug concentrations were measured over 9 timepoints collected between 0 and 24 hours of incubation by liquid-chromatography-coupled mass spectrometry (LC–MS). To be noted: 2 µM.

For data set [12] the following is noted: human gut metagenome, 24 h, 2 µM. This is another data set of the same source.
A short description of data set [13]: The drug is tested on Z-021 corresponding to metagenome with ENA study accession number: PRJEB37062 and ENA sample accession number: ERS12561820 for biotransformation under anaerobic condition. The drug concentrations were measured over 9 timepoints collected between 0 and 24 hours of incubation by liquid-chromatography-coupled mass spectrometry (LC–MS). Conditions: 2 µM.

For data set [14] the following is noted: human gut metagenome, 24 h, 2 µM. The source holds these as a separate data set.
Data set [15] in a line: The drug is tested on Z-023 corresponding to metagenome with ENA study accession number: PRJEB37062 and ENA sample accession number: ERS12561822 for biotransformation under anaerobic condition. The drug concentrations were measured over 9 timepoints collected between 0 and 24 hours of incubation by liquid-chromatography-coupled mass spectrometry (LC–MS). Conditions: 2 µM.

The conditions of data set [16]: human gut metagenome, 24 h, 2 µM. This is another data set of the same source.
For data set [17] the following is noted: human gut metagenome, 24 h, 2 µM. This is another data set of the same source.
The conditions of data set [18]: human gut metagenome, 24 h, 2 µM. The source holds these as a separate data set.
The conditions of data set [19]: human gut metagenome, 24 h, 2 µM. The source holds these as a separate data set.
The conditions of data set [20]: human gut metagenome, 24 h, 2 µM. The source holds these as a separate data set.
Further: call rule not given here.

`CN/C(=N/CCSCc1nc[nH]c1C)NC#N` [CIMETIDINE]: the “Bacterial Biotransformation” value in data set [1] is on record as “Compound NOT metabolized”; in data set [2] it was “Compound metabolized”; in data set [3], “Compound metabolized”; in data set [4], “Compound NOT metabolized”; in data set [5], “Compound metabolized”; in data set [6], “Compound NOT metabolized”. The “Bacterial Biotransformation” value in [7] is given as “Compound metabolized”; in data set [8], “Compound NOT metabolized”; in data set [9], “Compound NOT metabolized”; in data set [10] it was “Compound NOT metabolized”; in [11], “Compound NOT metabolized”; in [12] it was “Compound metabolized”. Further, the “Bacterial Biotransformation” value was “Compound NOT metabolized” in data set [13]; “Compound NOT metabolized” in data set [14]; “Compound NOT metabolized” in data set [15]; “Compound NOT metabolized” in data set [16]; “Compound NOT metabolized” in [17]; “Compound metabolized” in data set [18]. Further, the “Bacterial Biotransformation” value is listed as “Compound NOT metabolized” in data set [19] and “Compound metabolized” in data set [20].

On to `Br.CN(C)CCCC1(c2ccc(F)cc2)OCc2cc(C#N)ccc21` (stereo not given) [CITALOPRAM HYDROBROMIDE], for which the “Bacterial Biotransformation” value in [1] was “Compound NOT metabolized”; in data set [2] it was “Compound metabolized”; in [3], “Compound metabolized”; in [4], “Compound NOT metabolized”; in data set [5], “Compound metabolized”; in data set [6], “Compound NOT metabolized”. The “Bacterial Biotransformation” value in data set [7] is recorded as “Compound metabolized”; in data set [8], “Compound NOT metabolized”; in [9] it was “Compound NOT metabolized”; in data set [10], “Compound NOT metabolized”; in [11], “Compound NOT metabolized”; in data set [12] it was “Compound metabolized”. For the same compound, the “Bacterial Biotransformation” value is “Compound NOT metabolized” in data set [13]; “Compound metabolized” in [14]; “Compound NOT metabolized” in [15]; “Compound NOT metabolized” in [16]; “Compound NOT metabolized” in data set [17]; “Compound metabolized” in [18]. Further, the “Bacterial Biotransformation” value is “Compound metabolized” in data set [19] and “Compound NOT metabolized” in data set [20].

Regarding `CN(C)CCC=C1c2ccccc2C=Cc2ccccc21` [CYCLOBENZAPRINE], the “Bacterial Biotransformation” value in data set [1] is “Compound NOT metabolized”; in data set [2], “Compound metabolized”; in [3], “Compound metabolized”; in data set [4], “Compound NOT metabolized”; in data set [5] it was “Compound metabolized”; in data set [6] it was “Compound NOT metabolized”. Moreover, the “Bacterial Biotransformation” value was “Compound metabolized” in data set [7]; “Compound metabolized” in [8]; “Compound metabolized” in data set [9]; “Compound metabolized” in data set [10]; “Compound NOT metabolized” in [11]; “Compound metabolized” in data set [12]. Moreover, the “Bacterial Biotransformation” value in [13] was “Compound metabolized”; in data set [14] it was “Compound metabolized”; in [15], “Compound metabolized”; in data set [16], “Compound metabolized”; in data set [17], “Compound NOT metabolized”; in [18], “Compound metabolized”. Further, the “Bacterial Biotransformation” value in data set [19] is listed as “Compound NOT metabolized”; in data set [20] it was “Compound metabolized”.

As for `C[C@@H]1C[C@H]2[C@@H]3CCC4=CC(=O)C=C[C@]4(C)[C@@]3(F)[C@@H](O)C[C@]2(C)[C@@]1(O)C(=O)CO` [DEXAMETHASONE], the “Bacterial Biotransformation” value in data set [1] is given as “Compound NOT metabolized”; in data set [2], “Compound NOT metabolized”; in data set [3] it was “Compound NOT metabolized”; in data set [4], “Compound NOT metabolized”; in [5], “Compound NOT metabolized”; in data set [6] it was “Compound metabolized”. In addition, the “Bacterial Biotransformation” value in [7] is listed as “Compound NOT metabolized”; in data set [8] it was “Compound NOT metabolized”; in [9] it was “Compound NOT metabolized”; in [10], “Compound NOT metabolized”; in data set [11] it was “Compound metabolized”; in [12] it was “Compound NOT metabolized”. Further, the “Bacterial Biotransformation” value in data set [13] was “Compound metabolized”; in data set [14], “Compound NOT metabolized”; in [15] it was “Compound metabolized”; in [16] it was “Compound NOT metabolized”; in data set [17] it was “Compound NOT metabolized”; in data set [18] it was “Compound NOT metabolized”. Moreover, the “Bacterial Biotransformation” value in data set [19] and in data set [20] was “Compound NOT metabolized” in each case.

For the compound `O=C(Nc1ccccc1)OCC(CN1CCCCC1)OC(=O)Nc1ccccc1` (stereo not given) [DIPERODON], the “Bacterial Biotransformation” value in data set [1] is given as “Compound NOT metabolized”; in data set [2] it was “Compound metabolized”; in data set [3], “Compound NOT metabolized”; in [4], “Compound NOT metabolized”; in data set [5], “Compound NOT metabolized”; in [6], “Compound NOT metabolized”. Moreover, the “Bacterial Biotransformation” value in [7] is recorded as “Compound NOT metabolized”; in [8], “Compound metabolized”; in data set [9], “Compound NOT metabolized”; in [10], “Compound NOT metabolized”; in [11], “Compound NOT metabolized”; in [12], “Compound metabolized”. Moreover, the “Bacterial Biotransformation” value in data set [13] was “Compound NOT metabolized”; in [14], “Compound NOT metabolized”; in data set [15], “Compound metabolized”; in [16], “Compound NOT metabolized”; in [17], “Compound NOT metabolized”; in data set [18] it was “Compound NOT metabolized”. Besides, the “Bacterial Biotransformation” value in [19] and in [20] was “Compound metabolized” throughout.

As for `CC(C)N(CCC(C(N)=O)(c1ccccc1)c1ccccn1)C(C)C.O=P(O)(O)O` (stereo not given) [DISOPYRAMIDE PHOSPHATE], the “Bacterial Biotransformation” value was “Compound NOT metabolized” in [1]; “Compound NOT metabolized” in data set [2]; “Compound metabolized” in data set [3]; “Compound NOT metabolized” in data set [4]; “Compound NOT metabolized” in data set [5]; “Compound NOT metabolized” in [6]. Besides, the “Bacterial Biotransformation” value was “Compound NOT metabolized” in data set [7]; “Compound NOT metabolized” in [8]; “Compound metabolized” in data set [9]; “Compound NOT metabolized” in data set [10]; “Compound NOT metabolized” in data set [11]; “Compound NOT metabolized” in [12]. Further, the “Bacterial Biotransformation” value in data set [13], in data set [14], in data set [15], in [16], in data set [17] and in data set [18] was “Compound NOT metabolized” throughout. The “Bacterial Biotransformation” value in data set [19] and in data set [20] was “Compound NOT metabolized” in each case.
